Test results published in patent publication US20180332879A1, “AGENT FOR IMPROVING AFTERTASTE HAVING HIGH INTENSITY SWEETENERS” (NAGAOKA CO., LTD., priority 2017, published 2018).
Residues, ends and D or L forms follow the SMILES beside them.

Tests used:
[1] = Sweetness degree and taste characteristics of sweetener solutions equivalent to 8% by mass aqueous sugar solution; details: intensity of sweetness, sweetness degree of sugar defined as 1
Description: Solutions, each having a sweetness degree corresponding to an 8% by mass aqueous sugar solution, were prepared using the various high-intensity sweeteners shown in Table 1. In Table 1, each of the sweetness degrees represents the intensity of sweetness wherein the sweetness degree of sugar is defined as 1, and each of the concentrations represents the concentration of a high-intensity sweetener in the solution.

[2] = Sensory evaluation by seven panelists: improvement of the quality of sweetness and impure taste of a high-intensity sweetener solution after adding the improving agent; details: summary of Table 2
Description: The resultant solution 1 (an aspartame solution) in Preparation Example 3 was added the resultant solution in Preparation Example 1 in an amount of 0.033% by mass. The concentration of isobutyl angelate added to the solution 1 was 0.0099 ppm by mass. The taste of the solution 1 having isobutyl angelate added thereto was evaluated by the following method.
The solution 1 (without addition of isobutyl angelate) was tasted by seven panelists (one twenty-something male, one thirty-something male, one forty-something male, one fifty-something male, one sixty-something male, and one twenty-something female and one thirty-something female). Subsequently, the seven panelists rinsed their mouths sufficiently, and then the solution 1 containing isobutyl angelate (with addition of isobutyl angelate) was tasted by the seven panelists. The panelists compared the isobutyl-angelate-free solution with the isobutyl-angelate-added solution, and then determined whether or not the quality of sweetness and the impure taste of the isobutyl-angelate-added solution were improved compared with the isobutyl-angelate-free solution in accordance with the following criteria. When the sum total of the scores determined by the seven panelists was 10 points or greater, it was determined that the quality of sweetness and the impure taste were improved. […]

| Compound | Sweetness degree [1] [times] | Unpleasant aftertaste and impure taste (harsh, astringent) of a high-intensity sweetener in a solution [2] |
| --- | --- | --- |
| COC(=O)[C@H](Cc1ccccc1)NC(=O)[C@@H](N)CC(=O)O [Aspartame] (H-Asp-Phe-OMe) | 200 |  |
| CC1=CC(=O)NS(=O)(=O)O1 [Acesulfame potassium] | 200 |  |
| C/C=C(/C)C(=O)OCC(C)C [isobutyl angelate, Isobutyl angelate] |  | can be improved |
| OC[C@H]1O[C@H](O[C@]2(CCl)O[C@H](CCl)[C@@H](O)[C@@H]2O)[C@H](O)[C@@H](O)[C@H]1Cl [Sucralose] | 600 |  |
